US4578398A, “Substituted 2,3,4,9-tetrahydro-1H-carbazole-1-acetic acid, compositions and use” (American Home Products Corporation, priority 1985, dated 1986)

Columns and labels:
[1] = tested on: Phenylquinone Writhing; experiment: Drug effects in phenylquinone-induced writhing in mice; type: in vivo, Male Swiss albino mice; conditions: p.o., mouse, 60 min before phenylquinone i.p., writhes counted 15 min
Method: A further test used to determine the utility of the compounds of the present invention is designated: DRUG EFFECTS IN PHENYLQUINONE-INDUCED WRITHING IN MICE.
The objective of this test is to determine the ability of test drugs to inhibit the nociceptive (pain) response of mice injected with a chemical irritant. This test is a primary screen for both peripheral and centrally acting analgesic drugs.
Male Swiss albino mice (15-25 g). The animals are fasted for 18 hours prior to use but have free access to water.
Drug Preparation and Administration:
Drugs are dissolved or suspended according to their solubility in 0.5% methyl cellulose or 0.5% Tween 80. They are administered by gastric lavage in a volume of 5 ml/kg. For primary screening all drugs are administered at the arbitrary dosage of 200 mg/kg, p.o. to a group of 10 mice.
A modification of the method of Siegmund et al., Proc. Soc. Exp. Biol. Med., 95, 729-731 (1957) is used. Groups of 5 mice are dosed with the test compound or vehicle control. Sixty minutes later the animals are injected i.p. with 0.3 ml/20 g body weight of a 0.02% solution of phenylquinone (PBQ; 2-phenyl-1,4-benzoquinone) and placed in individual observation boxes. The number of writhing or abdominal squirming movements made by each mouse during the following 15 min. period is counted. The experiment is repeated with another group of 5 mice and the mean number of writhes per mouse for a group of 10 mice is calculated.
Drug treated and vehicle-treated control groups are compared and the percentage protection conferred by the drug is calculated: [formula] where c=mean number of writhes in the control group where t=mean number of writhes in the test drug group

[2] = tested on: Adjuvant Edema; experiment: Preventative Adjuvant Edema (Freund's complete adjuvant, hind paw edema volume in rats); type: in vivo, Male Sprague Dawley rats; conditions: p.o., rat, dosed day 0, 1 and 2, edema volume day 3
Method: This test is a primary screen for anti-inflammatory drugs.
Male Sprague Dawley rats (180-200 g) are used. The animals have free access water but food is withdrawn 18 hours before testing.
Drug Preparations and Administration:
Freund's complete adjuvant is prepared by suspending 5 mg killed and dried Mycobacterium butyricum (Difco) in 1 ml liquid paraffin. The test compounds are dissolved in distilled water or suspended in distilled water with a few drops of Tween 80 according to their solubility. […]
The method is essentially that described by Wax et al., J. Pharmacol. Exp. Ther., 192, 166-171 (1975). Groups of rats are injected intradermally in the left hind paw with 0.1 ml of Freund's complete adjuvant. The test compound or vehicle is administered immediately before the adjuvant, 24 hours and 48 hours after the adjuvant (day 0, 1 and 2). The injected hind paw volume is measured before the injection of adjuvant and 24 hrs. after the last drug administration (day 3) by means of a plethysmometer (Buxco Electronics Inc.). The difference between the hind paw volume on day 0 and day 3 represents the edema volume. Phenylbutazone (50 mg./kg, p.o.) is included as a positive control.
The mean edema volume (expressed as ml±SEM) is calculated for each group and the percentage protection conferred by the drug is calculated: [formula] where c is the mean edema volume for the untreated controls and t is the mean edema volume for the drug treated group.

Row | Compound | % Inhibition (Phenylquinone Writhing in Mice) ([1]; 25 mg/kg) [%] | % Inhibition (Preventative Adjuvant Edema) ([2]; 25 mg/kg) [%] | % Inhibition (Phenylquinone Writhing in Mice) ([1]; 200 mg/kg) [%] | % Inhibition (Preventative Adjuvant Edema) ([2]; 50 mg/kg) [%]
1 | C=CC1CCC(CC)(CC(=O)O)c2[nH]c3c(CC)cccc3c21 (single isomer, unassigned) [Example 1 g, 4-Ethenyl-1,8-diethyl-2,3,4,9-tetrahydro-1H-carbazole-1-acetic Acid] | 21 | 30 |  | 
2 | C=CC1CCC(CC)(CC(=O)O)c2[nH]c3c(CC)cccc3c21 (single isomer, unassigned) [Example 1 h, 4-Ethenyl-1,8-diethyl-2,3,4,9-tetrahydro-1H-carbazole-1-acetic Acid] | 0 | 62 |  | 
3 | CCc1cccc2c3c([nH]c12)C(CC)(CC(=O)O)CCC3c1ccccc1 (single isomer, unassigned) [Example 2 d, 1,8-Diethyl-2,3,4,9-tetrahydro-4-phenyl-1H-carbazole-1-acetic Acid] | 17 | 12 |  | 
4 | CCc1cccc2c3c([nH]c12)C(CC)(CC(=O)O)CCC3c1ccccc1 (single isomer, unassigned) [Example 2 e, 1,8-Diethyl-2,3,4,9-tetrahydro-4-phenyl-1H-carbazole-1-acetic acid] | 28 | 37 |  | 
5 | C=C(C)C1CCC(CC)(CC(=O)O)c2[nH]c3c(CC)cccc3c21 (single isomer, unassigned) [Example 3 d, 4-(1-Methylethenyl)-1,8-diethyl-2,3,4,9-tetrahydro-1H-carbazole-1-acetic Acid] |  |  | 50 | 25
6 | C=C(C)C1CCC(CC)(CC(=O)O)c2[nH]c3c(CC)cccc3c21 (single isomer, unassigned) [Example 3 e, 4-(1-Methylethenyl)-1,8-diethyl-2,3,4,9-tetrahydro-1H-carbazole-1-acetic Acid] | 0 | 46 |  | 
